Data published in publication PMC2812660 (Biochemical and biophysical research communications, 2009).
*1 amine or outer side, *2 acyl side, *3 side chain or, on linkers, in order; H or OH if unused. Where a SMILES comes first, the peptide text is derived from it. The star is where a group is joined. AMC = Cc1cc(=O)oc2cc(N*)ccc12; Suc = O=C(CCC(=O)[*:2])[*:1]

Biological target: 20S proteasome (Oryctolagus cuniculus, UniProt G1T4Q9)
Test: fluorogenic chymotrypsin-like activity assay
Type: biochemical
Settings: chymotrypsin-like site; control incubation without added SAM/SAH

Cc1cc(=O)oc2cc(NC(=O)[C@H](Cc3ccc(O)cc3)NC(=O)[C@@H](NC(=O)[C@H](CC(C)C)NC(=O)[C@H](CC(C)C)NC(=O)CCC(=O)O)C(C)C)ccc12 [Suc-LLVY-AMC] (Suc-LLVY-{AMC})
fluorogenic chymotrypsin-like activity assay: activity was detected in vitro using the fluorogenic substrate Suc-LLVY-AMC
